Experimental data published in US10231908B2, “Method of reducing hair loss associated with chemotherapy” (Galderma S.A., priority 2015, dated 2019).
Entries after “also recorded” stand apart in the source; their conditions may differ. Counter-ions that a name gives are not always drawn.

Key:
[1] = test system: cyclophosphamide-induced alopecia in C57B16 mice; assay: Cyclophosphamide-induced alopecia in mice after anagen induction by depilation; format: in vivo; conditions: for % of alopecia versus control: read on day 15
[2] = epinephrine 450 mM topical plus CYP at day 9

With `Brc1c(NC2=NCCN2)ccc2nccnc12` [Brimonidine, Brimonidine tartrate] the “% of alopecia versus control” value ([1]; brimonidine 35 mM (1%) topical, 100 μL, at t-2 hours and repeated 2 hours later, CYP 120 mg/kg i.p. at day 9) was “prevents alopecia; also recorded: prevented hair loss” and the “hair shedding in dorsal depilated area (representative pictures)” value ([1]; topical brimonidine, CYP-injected mice, day 15 after depilation) was “more hairs did not shed”.

For `CNC[C@H](O)c1ccc(O)c(O)c1` [Epinephrine, Epinephrine hydrochloride], the “% of alopecia versus control” value ([1]; epinephrine 450 mM topical, 20 min before and 10, 40 and 60 min after CYP 120 mg/kg i.p. at day 9, hydrochloride) was “worsened it; also recorded: worsened alopecia” and the “body weight of mice” value [2] was “temporarily decreased the body weight”.
